The assay relates to tracheae from guinea pigs. The assay is described as follows: passive Shultz-Dale reaction (broncho-dilative activity), relaxation of antigen-contracted tracheal strips. Also noted: species or system Male Hartley guinea pigs. The note with it: Cavia porcellus; concentration of 50% relaxation; passively sensitized guinea pig tracheal zig-zag strips, 37° C., antigen (egg white albumin) 1 μg/ml. Here is the method: Effect on passive Shultz-Dale reaction (broncho-dilative activity)
Male Hartley guinea pigs weighing 350 to 500 g were passively sensitized by intraperitoneal injection of rabbit anti-OA serum prepared in advance by the method of Koda et al. [Folia Pharmacol., Japon 66, 237, (1970)]. After 24 hours, tracheae were removed from guinea pigs and used for experiment. The zig-zag strips of the tracheae were prepared by the method of Emmerson and Mackay [J. Pharm. Pharmacol., 31, 798, (1979)]. The strips were suspended in Krebs-Henseleit solution at 37° C. under aeration of a mixed gas of 95% oxygen and 5% carbon dioxide, and equilibrated for one hour. Then, antigen (egg white albumin) was introduced in the solution (final concentration; 1 μg/ml), and the contraction was measured by isotonic transducer (TD-112s, made by Nihon Kohden K. K., Japan) and recorded on a recorder (Type 3066, made by Yokogawa-Hokushin Denki, K. K. Japan). After the contraction curves reached a plateau, the test compounds were successively added in order to get cumulative concentration-relaxation curves. The concentration of 50% relaxation rate (IC50) was calculated from the regression line, which was obtained from the cumulative concentration-relaxation curves.

As usually defined, the IC50 is the concentration at which inhibition is half-maximal.

For `S=c1c2[nH]cnc2c2cccnc2n1-c1ccccc1` [Compound 1, 5-Phenyl-3H-imidazo[4,5-c][1,8]naphthyridin-4(5H)-thione], the IC50 turned out to be 4.8 µM.

The record behind these values is patent publication US5484924A, “Imidazonaphthyridine derivatives” (Kyowa Hakko Kogyo Co., Ltd., priority 1991, dated 1996).
